Measurements as given in US11419869B2, “Dosage forms and regimens for amino acid compounds” (Pliant Therapeutics, Inc., priority 2019, dated 2022).

Experiments:
[1] = system: SMAD3 phosphorylation; test: PSMAD3/SMAD3 in healthy mice treated for 4 days; format: in vivo; settings: 4 days of treatment
Source text: It has been previously shown that inhibition of αvβ6 in the lung can be detected though measurement of phospho-SMAD (pSMAD) in alveolar macrophages. Alveolar macrophages are known to operate in a unique niche in the lung, distinct from interstitial macrophages. SMAD3 is a downstream target of the active TGF-β cytokine binding its receptor and in alveolar macrophages it is phosphorylated by homoeostatic levels of TGF-β. Accordingly, it was desirable to know whether inhibition of TGF-β activation using the disclosed compounds would result in reduced SMAD2 and SMAD3 phosphorylation.
FIG. 4A is a graph of PSMAD3/SMAD3 in lung tissue from healthy mice administered PBS vehicle and varying levels of compound 5 for 4 days. FIG. 4B is a graph of PSMAD3/SMAD3 in BALF drawn from the same healthy mice administered PBS vehicle and varying levels of compound 5 for 4 days.

[2] = biological target: recombinant human integrin αvβ6 (Homo sapiens (Human), UniProt P06756+P18564); test: Solid Phase Integrin αvβ6 Binding Assay (Examples B1, B2); settings: TGFβ1 LAP ligand, values given in four ranges, read-out: αvβ6 Inhibition IC50 (nM)-range
Sequence of recombinant human integrin αvβ6 (P06756 31-992): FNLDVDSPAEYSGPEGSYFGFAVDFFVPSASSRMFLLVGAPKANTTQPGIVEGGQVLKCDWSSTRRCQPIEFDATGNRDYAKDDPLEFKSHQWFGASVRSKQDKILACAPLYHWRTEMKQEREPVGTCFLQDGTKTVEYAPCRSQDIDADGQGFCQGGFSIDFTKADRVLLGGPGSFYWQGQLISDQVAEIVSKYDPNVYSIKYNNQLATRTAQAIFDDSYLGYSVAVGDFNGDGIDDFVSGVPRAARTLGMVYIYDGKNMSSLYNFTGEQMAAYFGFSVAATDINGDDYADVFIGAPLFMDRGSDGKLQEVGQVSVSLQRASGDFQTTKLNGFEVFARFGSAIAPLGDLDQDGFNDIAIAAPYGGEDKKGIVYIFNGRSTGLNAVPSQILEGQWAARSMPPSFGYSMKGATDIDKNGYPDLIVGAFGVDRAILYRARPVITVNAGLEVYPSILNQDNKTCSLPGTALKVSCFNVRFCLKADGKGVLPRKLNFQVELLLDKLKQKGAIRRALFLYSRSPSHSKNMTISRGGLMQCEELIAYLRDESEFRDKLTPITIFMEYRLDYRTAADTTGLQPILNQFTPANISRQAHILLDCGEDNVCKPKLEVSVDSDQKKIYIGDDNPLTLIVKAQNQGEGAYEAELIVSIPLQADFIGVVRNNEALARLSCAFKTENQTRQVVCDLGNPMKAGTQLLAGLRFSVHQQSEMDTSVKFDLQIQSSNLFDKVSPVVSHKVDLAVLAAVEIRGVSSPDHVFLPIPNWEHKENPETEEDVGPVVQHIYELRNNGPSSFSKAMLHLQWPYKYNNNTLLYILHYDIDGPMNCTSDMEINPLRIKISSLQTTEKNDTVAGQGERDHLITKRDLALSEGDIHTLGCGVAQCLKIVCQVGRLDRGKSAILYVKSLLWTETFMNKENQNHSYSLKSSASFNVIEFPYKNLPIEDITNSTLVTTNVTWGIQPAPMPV
Sequence of recombinant human integrin αvβ6 (P18564 22-707): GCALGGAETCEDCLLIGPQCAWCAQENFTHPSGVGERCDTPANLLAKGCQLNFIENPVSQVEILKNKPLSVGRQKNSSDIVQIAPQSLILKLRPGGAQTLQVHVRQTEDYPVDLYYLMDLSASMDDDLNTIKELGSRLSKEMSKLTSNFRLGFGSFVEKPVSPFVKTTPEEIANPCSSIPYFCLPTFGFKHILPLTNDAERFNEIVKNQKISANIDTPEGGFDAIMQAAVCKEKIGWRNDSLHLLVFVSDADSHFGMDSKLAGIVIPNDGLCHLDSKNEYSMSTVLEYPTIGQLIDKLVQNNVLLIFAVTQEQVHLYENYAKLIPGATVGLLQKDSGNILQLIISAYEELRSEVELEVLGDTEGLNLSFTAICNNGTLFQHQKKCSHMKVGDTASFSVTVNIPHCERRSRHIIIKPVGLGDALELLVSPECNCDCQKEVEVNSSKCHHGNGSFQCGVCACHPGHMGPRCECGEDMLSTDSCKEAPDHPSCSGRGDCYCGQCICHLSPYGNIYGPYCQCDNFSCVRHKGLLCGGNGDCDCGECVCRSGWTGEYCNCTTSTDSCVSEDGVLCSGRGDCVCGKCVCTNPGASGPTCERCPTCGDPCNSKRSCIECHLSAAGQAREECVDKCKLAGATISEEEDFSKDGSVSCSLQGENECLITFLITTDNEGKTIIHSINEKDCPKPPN
Summary of the method: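 Plates coated with recombinant human αvβ6 (2 μg/mL) compete compound against recombinant TGFβ1 LAP (0.67 μg/mL) in TBS binding buffer with 0.5 mM MnCl2, 2 h at 25 °C. Bound LAP detected with biotin-anti-hLAP and peroxidase-streptavidin; IC50 by four-parameter logistic regression.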

[3] = system: lung Col1a1 expression; test: Precision cut lung slices, chronic bleomycin, versus pirfenidone and nintedanib (Example B10); format: cell-based, mice; settings: 7 days culture, vs DMSO vehicle, FIG. 6A
Protocol: Mice (C57BL/6) were administered 3 U/kg of bleomycin (Teva Pharmaceuticals; North Wales, Pa.) on Day 0 and 1 U/kg of bleomycin on days 14, 28, 42 and 56 via oropharyngeal aspiration while under anesthesia. At day 70, 14 days following the final bleomycin insult, precision cut lung slices were obtained. Following euthanization, 2% low gelling temp agarose was injected into the mouse lungs via the trachea. […] The lobes were then subjected to precision slicing to obtain samples for culture using a microtome (Compresstome VF-300-0Z, Precisionary; Greenville, N.C.). Individual slices were distributed in a multiwell culture plate and cultured for 7 days under control (DMSO) and test compound conditions. The viability of the slices over the course of culturing was confirmed by WST-1 assay of mitochondrial activity.
During the culture period, slices in the control group were treated with DMSO and slices in the test group were treated with a DMSO solution of one of compound 5; nintedanib; pirfenidone; a combination of nintedanib and compound 5; a combination of pirfenidone and compound 5; or the small molecule ALK5 inhibitor. Compound 5 was […] effective to equal or exceed its respective IC50 values at αvβ6 and αvβ1. The small molecule ALK5 inhibitor was analyzed at […] its reported IC50 value. Nintendanib and pirfenidone were analyzed at concentrations 10× their reported therapeutic concentrations.

[4] = system: Type I Collagen gene Col1a1 expression; test: Precision cut lung slices, mice under acute bleomycin exposure (Example B8); format: cell-based; settings: 3 days culture, normalized to DMSO, FIG. 5A
Protocol: Mice (C57BL/6) were administered 3 U/kg of bleomycin (Teva Pharmaceuticals; North Wales, Pa.) on day 0 via oropharyngeal aspiration while under anesthesia. On day 14, precision cut lung slices were obtained. Following euthanization, 2% low gelling temp agarose was injected into the mouse lungs via the trachea. […] The lobes were then subjected to precision slicing to obtain samples for culture using a microtome (Compresstome VF-300-0Z, Precisionary; Greenville, N.C.). Individual slices were distributed in a multiwell culture plate and cultured for 3 days under control (DMSO) and test compound conditions.

## COCCN(CCCCc1ccc2c(n1)NCCC2)CC[C@H](Nc1ncnc2ccccc12)C(=O)O [Compound 5, (S)-4-((2-methoxyethyl) (4-(5,6,7,8-tetrahydro-1,8-naphthyridin-2-yl)butyl)amino)-2-(quinazolin-4-ylamino) butanoic acid]
[1]; FIG. 4A
  PSMAD3/SMAD3 in lung tissue: approximately 50 % of the untreated levels
[1]; cells isolated from BALF, FIG. 4B
  PSMAD3/SMAD3 in BALF: approximately 50 % of the untreated levels
[2]
  IC50: < 50 nM
[3]
  lung slice Col1a1 expression: substantial, statistically significant (p<0.01 vs vehicle) decrease
[4]
  Type I Collagen gene Col1a1 expression: decreased Type I Collagen gene Col1a1 expression substantially
